This note sets out measurements from PMC3124571 (Biochemical pharmacology, 2011).

Molecules are shown by their SMILES. Where two headings read alike, the source gives them in different places.

Series [1] addresses carbonyl-reducing enzymes of baboon placental microsomes. Type of series: biochemical. The following applies: read-out: IC50 (TB formation, placental microsomes).
The target in series [2] is carbonyl-reducing enzymes of baboon hepatic microsomes. Type of series: biochemical. The following applies: read-out: IC50 (TB formation, hepatic microsomes); n = 3.
The target in series [3] is carbonyl-reducing enzymes of baboon placental microsomes. It is filed as biochemical. The following applies: read-out: IC50 (EB formation, placental microsomes).
In series [4] the test system is TB and EB formation by baboon hepatic microsomes. The following applies: hepatic microsomes 1 mg/ml, bupropion 30 µM, 40 min; menadione 100µM, 18β-GA 0.1µM, flufenamic acid 5µM, barbital, 4-methylpyrazole, dicumarol 500µM.
Series [5] deals with TB and EB formation by baboon placental microsomes. The following applies: placental microsomes 1 mg/ml, bupropion 30 µM, 40 min; menadione 100µM, 18β-GA 0.1µM, flufenamic acid 5µM, barbital, 4-methylpyrazole, dicumarol 500µM.
The test system of series [6] is OH-BUP formation by baboon hepatic microsomes.
For series [7], the system named is baboon hepatic microsomes. Nature of the series: Biotransformation of bupropion by baboon hepatic microsomes.
Test in series [8]: as above
The following applies: female, baboon (Papio cynocephalus), liver microsomes, pH 7.4, apparent Km. In general terms: Microsomes from liver hold many membrane-bound enzymes, among them those of drug oxidation.

Series [9] is described as follows: Biotransformation of bupropion by baboon placental microsomes. The following applies: baboon (Papio cynocephalus), pH 7.4, apparent Km.
For series [10], the system named is EB formation (bupropion carbonyl reduction); carbonyl reductase (menadione), aldo-ketoreductase (flufenamic acid). Nature of the series: in vitro. The following applies: baboon (Papio cynocephalus), placental microsomes, probe bupropion 30 µM (≈Km).
In series [11] the test system is TB formation (bupropion carbonyl reduction); carbonyl reductase (menadione), aldo-ketoreductase (flufenamic acid). Nature of the series: in vitro. The following applies: baboon (Papio cynocephalus), placental microsomes, probe bupropion 30 µM (≈Km).
The test system is the same in series [12]. Nature of the series: in vitro. The following applies: baboon (Papio cynocephalus), liver microsomes, probe bupropion 30 µM (≈Km).
Series [13] concerns EB formation (bupropion carbonyl reduction); aldo-ketoreductase (flufenamic acid). Nature of the series: in vitro. The following applies: baboon (Papio cynocephalus), liver microsomes, probe bupropion 30 µM (≈Km).

The term IC50 denotes the midpoint of a concentration-inhibition curve. Consider `CC1(C)[C@@H](O)CC[C@]2(C)[C@H]3C(=O)C=C4[C@@H]5C[C@@](C)(C(=O)O)CC[C@]5(C)CC[C@@]4(C)[C@]3(C)CC[C@@H]12` [18β-GA, 18β-glycyrrhetinic acid], for which the IC50 is 0.025 µM in series [1], 0.015 µM in [2] and 0.022 µM in series [3].

Consider `CC1(C)[C@@H](O)CC[C@]2(C)[C@H]3C(=O)C=C4[C@@H]5C[C@@](C)(C(=O)O)CC[C@]5(C)CC[C@@]4(C)[C@]3(C)CC[C@@H]12` [18β-glycyrrhetinic acid], for which the “inhibition of TB formation” value in [4] and in series [5] was 80% throughout. Further, the “inhibition of EB formation” value in [5] is listed as 80%.

Broadly, the inhibition is how much of the control response was suppressed. `C=C(C)[C@@H]1CCC2=CC(=O)C[C@@H](C)[C@]2(C)C1` [(+)-nootkatone] gave an inhibition in [6] of 10 to 15%.

With `CCC1(CC)C(=O)NC(=O)NC1=O` [barbital], in [4], the “inhibition of EB formation” value is “did not affect” and the “inhibition of TB formation” value was “did not affect”. For the same compound, in [5], the “inhibition of EB formation” value was “did not affect” and the “inhibition of TB formation” value is “did not affect”.

For orientation: Km means the substrate concentration at which the rate is half of its maximum. On to `CC(NC(C)(C)C)C(=O)c1cccc(Cl)c1` (stereo not shown) [bupropion], for which the “Vmax, EB formation” value in [7] was 46 ± 8 pmol mgprotein^−1 min^−1. Further, the “Vmax, TB formation” value in series [7] turned out to be 116 ± 19 pmol mgprotein^−1 min^−1. In addition, the Km at 30 min was 36 ± 6 µM in [8] (hydroxylation of bupropion to OH-BUP, bupropion 10–400µM); 32 ± 3 µM in series [8] (reduction of bupropion to EB); 28 ± 2 µM in series [8] (reduction of bupropion to TB). In addition, the Km at 40 min in series [9] (reduction of bupropion to EB) is 32 ± 14 µM; in series [9] (reduction of bupropion to TB) it was 20 ± 14 µM.

With `O=C(O)c1ccccc1Nc1cccc(C(F)(F)F)c1` [flufenamic acid], the IC50 at 40 min was 5.6 µM in series [10], 9.9 µM in series [11], 11.4 µM in series [12] and 7.7 µM in [13]. Besides, the inhibition at 40 min in series [10], in [11] and in series [12] was 40% throughout.

`CC1=CC(=O)c2ccccc2C1=O` [menadione]: the values for the IC50 at 40 min in series [10], in series [11] and in [12] were 30.3 µM, 27.9 µM and 47 µM, respectively.
